Source: PubChem BioAssay (NCI)
“And” between values parts separate entries of the source, which are not always exact repeats. Equal values may be shown once.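 Test compounds were applied to cells in 96-well plates for 48 hours at 5 doses. Abbreviation: GI50, concentration required for 50% inhibition of growth. TGI is the concentration that stops growth completely.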

What was measured:
Experiment in all cases: NCI-60 cell line screen, 48 h
SW-620 colon = test system: SW-620 colon
OVCAR-8 ovarian = test system: OVCAR-8 ovarian
COLO 205 colon = test system: COLO 205 colon
MDA-MB-231 breast = test system: MDA-MB-231 breast
SF-268 CNS = test system: SF-268 CNS
KM12 colon = test system: KM12 colon
SNB-75 CNS = test system: SNB-75 CNS
UO-31 renal = test system: UO-31 renal
SF-295 CNS = test system: SF-295 CNS
HS 578T breast = test system: HS 578T breast

SMILES: COc1ccc2c(c1)OC(N)=C(C#N)C2c1ccc(F)c(F)c1 (stereo not given)
- GI50 (SW-620 colon): 0.398 µM
- TGI (SW-620 colon): > 100 µM
- GI50 (OVCAR-8 ovarian): 0.602 µM
- TGI (OVCAR-8 ovarian): > 44.3 µM
- GI50 (COLO 205 colon): 0.437 µM
- TGI (COLO 205 colon): 5.2 µM
- GI50 (MDA-MB-231 breast): 1.33 µM
- TGI (MDA-MB-231 breast): 62.1 µM
- GI50 (SF-268 CNS): 0.754 µM
- TGI (SF-268 CNS): > 65.4 µM
- GI50 (KM12 colon): 0.349 µM
- TGI (KM12 colon): 26 µM
- GI50 (SNB-75 CNS): 0.186 µM
- TGI (SNB-75 CNS): 4.87 µM
- GI50 (UO-31 renal): 0.648 µM
- TGI (UO-31 renal): > 100 µM
- GI50 (SF-295 CNS): 0.393 µM
- TGI (SF-295 CNS): > 52.4 µM
- GI50 (HS 578T breast): 0.426 µM
- TGI (HS 578T breast): > 46.3 µM

SMILES: COc1cc2cc(Oc3ccc(NC(=O)Nc4ccc(F)c(C(F)(F)F)c4)cc3)c(C)nc2cc1OCCN1CCOCC1
- GI50 (SW-620 colon): 3.34 µM
- TGI (SW-620 colon): 9.86 µM
- GI50 (OVCAR-8 ovarian): 2.73 µM
- TGI (OVCAR-8 ovarian): > 100 µM
- GI50 (COLO 205 colon): 1.87 µM
- TGI (COLO 205 colon): 4.28 µM
- GI50 (MDA-MB-231 breast): 2.83 µM
- TGI (MDA-MB-231 breast): 9.02 µM
- GI50 (SF-268 CNS): 3.66 µM
- TGI (SF-268 CNS): 19.8 µM
- GI50 (KM12 colon): 2.69 µM
- TGI (KM12 colon): 10.6 µM
- GI50 (SNB-75 CNS): 1.96 µM
- TGI (SNB-75 CNS): 7.45 µM
- GI50 (UO-31 renal): 1.71 µM
- TGI (UO-31 renal): 10.6 µM
- GI50 (SF-295 CNS): 1.35 µM
- TGI (SF-295 CNS): 4.22 µM
- GI50 (HS 578T breast): 2.12 µM
- TGI (HS 578T breast): 8.9 µM

SMILES: O=C(/C=C/c1cccnc1)c1ccccc1
- GI50 (SW-620 colon): 1.92 µM
- TGI (SW-620 colon): 4.21 µM
- GI50 (OVCAR-8 ovarian): 12.2 µM
- TGI (OVCAR-8 ovarian): 25.9 µM
- GI50 (COLO 205 colon): 13.9 µM
- TGI (COLO 205 colon): 28.8 µM
- GI50 (MDA-MB-231 breast): 12.9 µM
- TGI (MDA-MB-231 breast): 28.3 µM
- GI50 (SF-268 CNS): 14.4 µM
- TGI (SF-268 CNS): 30 µM
- GI50 (KM12 colon): 2.33 µM
- TGI (KM12 colon): 6.87 µM
- GI50 (SNB-75 CNS): 15.6 µM
- TGI (SNB-75 CNS): 34.6 µM
- GI50 (UO-31 renal): 11.4 µM
- TGI (UO-31 renal): 25.5 µM
- GI50 (SF-295 CNS): 14.3 µM
- TGI (SF-295 CNS): 29.3 µM
- GI50 (HS 578T breast): 10.5 µM
- TGI (HS 578T breast): 32.7 µM

SMILES: COc1cccc(Nc2ncnn3ccc(CN4CC[C@@H](N)[C@H](O)C4)c23)c1
- GI50 (SW-620 colon): 17.7 µM and > 4.35 µM
- TGI (SW-620 colon): 44.5 µM and > 10 µM
- GI50 (OVCAR-8 ovarian): 2.73 µM and 1.66 µM
- TGI (OVCAR-8 ovarian): 40.3 µM and > 10 µM
- GI50 (COLO 205 colon): 3.73 µM and 3.13 µM
- TGI (COLO 205 colon): 18.2 µM and > 6.18 µM
- GI50 (MDA-MB-231 breast): 2.3 µM and 1.54 µM
- TGI (MDA-MB-231 breast): 25.9 µM and > 10 µM
- GI50 (SF-268 CNS): 4.42 µM and 1.62 µM
- TGI (SF-268 CNS): 99.7 µM and > 6.67 µM
- GI50 (KM12 colon): 3.31 µM and 2.88 µM
- TGI (KM12 colon): 15.3 µM and > 10 µM
- GI50 (SNB-75 CNS): 0.102 µM and 0.043 µM
- TGI (SNB-75 CNS): 0.808 µM and 0.49 µM
- GI50 (UO-31 renal): 0.145 µM and 0.132 µM
- TGI (UO-31 renal): 5.02 µM and 4.12 µM
- GI50 (SF-295 CNS): 12.2 µM and > 5.6 µM
- TGI (SF-295 CNS): 45.5 µM and > 10 µM
- GI50 (HS 578T breast): 0.698 µM and 0.395 µM
- TGI (HS 578T breast): 5.18 µM and 2.69 µM

SMILES: Oc1c(CCl)cc(Cl)cc1Cc1cc(Cl)cc(Cc2cc(Cl)cc(CCl)c2O)c1O
- GI50 (SW-620 colon): 3.92 µM
- TGI (SW-620 colon): 14.2 µM
- GI50 (OVCAR-8 ovarian): 3.62 µM
- TGI (OVCAR-8 ovarian): 30.7 µM
- GI50 (COLO 205 colon): 7.14 µM
- TGI (COLO 205 colon): 26.7 µM
- GI50 (MDA-MB-231 breast): 2.64 µM
- TGI (MDA-MB-231 breast): 7.63 µM
- GI50 (SF-268 CNS): 3.18 µM
- TGI (SF-268 CNS): 62.1 µM
- GI50 (KM12 colon): 3.43 µM
- TGI (KM12 colon): 13.5 µM
- GI50 (SNB-75 CNS): 3.95 µM
- TGI (SNB-75 CNS): 80.2 µM
- GI50 (UO-31 renal): 2.92 µM
- TGI (UO-31 renal): 11.8 µM
- GI50 (SF-295 CNS): 3.66 µM
- TGI (SF-295 CNS): 34.7 µM
- GI50 (HS 578T breast): 3.02 µM
- TGI (HS 578T breast): 22.6 µM
